Assay results reported in US20260232574A1, “COMPOSITIONS AND METHODS FOR TREATING DYSMENORRHEA” (Daré Bioscience, Inc., priority 2023, published 2026).

Assay: pH / titration curve of 4% diclofenac sodium in water
Format: physicochemical

O=C(O)Cc1ccccc1Nc1c(Cl)cccc1Cl [diclofenac, 2-[2-(2,6-dichloroanilino)phenyl]acetic acid]
pH of diclofenac in water (4% diclofenac sodium in water): around 7.8 | buffering capacity to adjust the pH by 1 unit (strong acid or base): 0.625 mMoles
